Each structure is given as a SMILES string. Entries after “also recorded” stand apart in the source; their conditions may differ. Where two headings read alike, the source gives them in different places.

The test system of series [1] is SW480 cells. Briefly: Colony survival assay, SW480. It is filed as cell-based, human. The note with it: for DMF (IC50 for TMZ alone/IC50 for TMZ plus modifier(s)): modifier(s) plus TMZ vs TMZ alone. The text has this: (§1) Chemicals and Reagents. BG was generously provided by Dr. Robert Moschel (Frederick Cancer Research and Development Center, National Cancer Institute). Stock solution was made in dimethylsulfoxide. TMZ and BCNU were obtained from the Drug Synthesis and Chemistry Branch, Drug Therapeutic Program, National Cancer Center Institute. PD128763 was a gift from Park-Davis Pharmaceutical Division. 6-AN, 3-AB, MX and methylmethane sulfonate (MMS) were purchased from Sigma (ST. Louis, Mo.). Stock solutions of PD128763, 3-AB and 6-AN were prepared by dissolving in dimethylsulfoxide and added to cell culture at a final concentration of <1% DMSO, when cells were treated with these compounds. MX was dissolved in sterilized water (pH 7.0). All stock solutions were kept at −20° C. BCNU was prepared fresh in 0.5 ml of 100% ethanol, diluted in PBS, and used with in 10 min. Colony Survival Assay. SW480 cells were obtained from the ATCC. HCT116 cells were obtained from R. Boland, University of Michigan Medical Center. All cell lines were cultured in appropriate growth medium.
(§2) Cells (2000/dish) were plated, adhered for 18 hrs and treated with TMZ or
(§3) MMS plus or minus modifiers such as […], MX, 6-AN, 3-AB or PD128763, according to experimental protocol. After treatment, cells were washed and fresh medium was replaced. The cells were grown for a further 7 days prior to staining with methylene blue for determination of colonies containing more than 50 cells. Comparisons of drug induced cytotoxicity consisted of a calculation of the dose modification factor (DMF), defined as the ratio of the IC50 of either TMZ or MMS in the absence to that in the presence of indicted modifier(s), i.e., DMF═IC50 for TMZ alone/IC50 for TMZ plus modifier(s).

A further series has as its system HCT116-Ch3 tumors. Briefly: HCT116-Ch3 xenograft tumor response in nude mice. Type of series: in vivo. The note with it: BCNU 30 mg/kg single i.p. Here is the method:
Nude mice carrying tumor received a single injection (i.p.) of BCNU (30 mg/kg) or MX (2 mg/kg) combined with BCNU.
Tumor measurements were taken every 3 days.
At the tumor sizes indicated above, the mice received a single i.p. injection, also as described above.

Series [2] relates to HCT116 cells. Briefly: Colony survival assay, HCT116. It is filed as cell-based, human. The note with it: for IC50: Homo sapiens, HCT-116.
Source text: as §1, §2, §3

The next series concerns HCT116 xenograft. Briefly: HCT116 xenograft tumor response in nude mice. It is filed as in vivo.
In series [3] the test system is human bone marrow cells (CD34+ cells). Briefly: Colony forming assay, human bone marrow / CD34+ cells. It is filed as cell-based. The note with it: human bone marrow cells. The text has this: (§4) We observed less myelosuppression and less weight loss using TMZ and MX than using TMZ and BG. […] To test this hypothesis, we conducted in vitro experiments comparing the sensitivity to BG+TMZ and MX+TMZ in colon cancer cell lines with that of mouse bone marrow and human bone marrow cells. […] MX increased TMZ killing by 4 fold in SW480 cells. […] Topoisomerase (Topo) I and Topo II recognize spontaneous AP sites and form stable cleavable complexes. We hypothesized that AP sites formed during repair of TMZ-induced N7 mG and N3 mA adducts would also be recognized by Topo I and Topo II. However since Base Excision Repair [BER] is normally quite efficient, we further hypothesized that the impact of Topo I and Topo II would be most important after MX inhibition of BER; increased unrepaired MX adducted AP sites should increase Topo mediated strand breaks and apoptosis. Therefore, potentiation of TMZ cytotoxicity by MX would be dependent on Topo I and II. […] Lack of Topo I and II results in less cleavable complex formation, fewer double strand DNA breaks, and less apoptosis. We predict a better therapeutic index for the combination of MX/TMZ than observed with BG/TMZ because of the relative overexpression of topoisomerases I and II in malignant cells compared to marrow progenitors.

Series [4] has as its system murine bone marrow progenitor cells. Kind of series: Colony forming assay, murine bone marrow progenitor cells. The settings on record: mouse bone marrow cells. It is filed as cell-based, mouse.
Source text: as §4

A further series relates to MAWI cells. The settings on record: high levels of ATase; cited from earlier work.
A further series has as its system SW480 xenograft. Kind of series: SW480 xenograft tumor response in nude mice. Type of series: in vivo.
Series [5] has as its system HCT116 cells. Kind of series: Growth inhibition assay (MTT), HCT116. It is filed as cell-based, human. The note with it: Homo sapiens, HCT-116; MMR deficient HCT116 cells; IUdR alone or with MX 6 mM. Here is the method:
In this experiment, a growth inhibition assay was carried out with H2O2, an oxidizing agent that mimics the effect of chemotherapeutic agents and radiation. Cells in the exponential phase were plated (1×10^4) in 24-well tissue culture plates. After attachment overnight, the cells were incubated with hydrogen peroxide (H2O2) (0-150 μM) or MX (6 mM) plus H2O2 for 1 hr. Five days after treatment, the media was discarded, and 100 μl of MTT (5 mg/ml in PBS) was added in 1 ml fresh media to each well for 4 hrs at 37° C. The MTT solution was then removed, and the formazan crystals were dissolved in 200 μl/well of DMSO for 20 min and changes in absorbance were determined at A540nm. Percentage growth inhibition was calculated by comparison of the A540nm reading from treated versus control cells.
The agents contemplated for combinations with MX in this example are agents which incorporate into DNA and are repaired by BER to form AP sites. Cell-growth inhibition was carried out with HCT116 cells to test MX-potentiated cytotoxicity of iododeoxyuridine (IUdR), which has been recognized as a radiosensitizing agent since the early 1960's.

The subject of series [6] is SW480 cells. Kind of series: Flow cytometry cell cycle distribution and apoptosis, SW480. Background: Flow cytometry measures light scatter and fluorescence of single cells or particles in a stream.
Protocol: Median Effect Analysis (MEA). MEA was used to determine the dose-response interactions between TMZ and either MX or PD 128763. Drugs were combined at the ratio of the IC50 values for either TMZ and MX or TMZ and PD 128763 as determined by survival/concentration curves. The combination was compared to the cytotoxicity of each drug alone in every experiment. The combination index (CI) was determined from colony-forming assays at increasing levels of cell killing, using analysis of multiple drug interaction program (Biosoft, Cambridge, United Kingdom) developed based on method of Chou and Talalay (Chou and Talalay “Quantitative analysis of dose-effect relationship: the combined effects of multiple drugs on enzyme inhibitors” In: G. Weber (ed.) Advances in Enzyme Regulation, pp. 27-55, New York: Pergamon Press, 1983). CI values of less than or grater than 1 indicate synergy and antagonism, respectively, whereas a CI value of 1 indicates additivity of the drugs. Flow Cytometry for Cell Cycle Distribution Analysis. For cell cycle analysis, 10^6 cells were plated in 100-mm tissue culture dishes and exposed to MX (6 mM)/PD128763 (100 μM) or MX (6 mM)/PD128763 (100 μM) plus TMZ (300 μM) at 37° C. After 24 h-72 h of culture, cells were fixed in 80% ethanol and DNA was stained with 20 μg/ml propidium iodide. DNA fluorescence of PI-stained cells was measured with an Elite ESP flow cytometer/cell sorter (Coulter, Miami, Fla.). Cell cycle distribution was analyzed with Modfit 5.2 program (Verity software, Topsham, Mass.) at least 10,000 cells per data point. Western Blotting for PARP Cleavage Detection. Cell extracts were resolved by SDS-PAGE (12% polyacrylamide) in a Bio-Rad minigel apparatus at 150 V for 1 hr. […] The tumors were measured with calipers using the National Cancer Institute formula: V=L(mm)×I^2 (mm)/2 where L is the largest diameter and I is the smallest diameter of the tumor. […] The relative tumor volume (V/V0) was calculated by dividing the measured tumor volume (V) by the initial tumor volume (V0) at day 0. Tumor responses were quantified by tumor regrowth delay. Tumor growth delays were calculated according to: tumor growth delay=T2XC2X, where T2X and C2X represent the number of days treated and control tumors take to double in size from the day of treatment, respectively. […] Toxicity after treatment was evaluated by body weight measurements and peripheral WBC counting. Body weight was measured three times weekly from the first treatment until 2 weeks after the end of treatment. The weight loss was expressed as a percentage of the initial weight (initial weight−lowest weight/initial weight×100%). Peripheral WBCs were monitored 5 days after the end of treatment compared with WBCs of control mice.
Series [7] deals with HCT116 cells. Kind of series: Flow cytometry cell cycle distribution and apoptosis, HCT116. Type of series: cell-based, human.
The nature of series [8]: Toxicity evaluation in mice bearing HCT116 xenograft. The settings on record: Table 2 doses.
Protocol: (§5) Tumors in Nude Mice. Tumor cells (5×10^6) were injected into flanks of female athymic HSD nude mice, at 6-8 weeks of age. The tumors were measured with calipers using the National Cancer Institute formula: V=L(mm)×I^2 (mm)/2 where L is the largest diameter and I is the smallest diameter of the tumor. […] Toxicity Evaluation. Toxicity after treatment was evaluated by body weight measurements and peripheral WBC counting. Body weight was measured three times weekly from the first treatment until 2 weeks after the end of treatment. The weight loss was expressed as a percentage of the initial weight (initial weight−lowest weight/initial weight×100%).
Series [9] can be described thus: Toxicity evaluation in mice bearing SW480 xenograft. The settings on record: Table 1 doses.
Protocol: as §5
The next series has as its system DEtp cell line. Briefly: DEtp subline of DLD1. It is filed as cell-based. The settings on record: DEtp subline. The text has this: We also investigated whether TMZ and MX-induced MX-AP sites may also act as poisons of topoisomerase II α (topo II), producing dual lethal targets. To analyze the effect of MX-AP site on topo II-mediated DNA cleavage, a position-specific MX-AP site was generated on topo II cleavage sites using oligonuleotides for cleavage assay. […] We also found prolonged induction of topo II and remarkable increase in DNA double strand breaks in cells treated with TMZ and MX compared to TMZ alone. Similar results were also observed in cells treated with etoposide but not with N-methyl-maleimide (a catalytic inhibitor of topo II and also an antagonizer of etoposide). Moreover, the potentiation of TMZ by MX was decreased in DEtp cell line that was a subline derived from DLD1 and 5-fold more resistant to etoposide compared to the parental cell line.

One may read the IC50 as the concentration that inhibits the measured activity by half. For `O=NN(CCCl)C(=O)NCCCl` [BCNU, 1,3-bis(2-chloroethyl)-1-nitrosourea], the IC50 was 27 to 29 µM in the series with SW480 cells [1] (Homo sapiens, SW480, 2 h, SW480, BCNU alone or after 6 mM MX 2 hr and/or BG, read-out: BCNU IC50) and 45 µM with HCT116 cells [2] (HCT116, BCNU alone or after 6 mM MX 2 hr and/or BG, read-out: BCNU IC50). Further, the “effect on tumor growth” value is given as “very mild effect” with HCT116-Ch3 tumors and “very mild effect” in the series with HCT116 xenograft (HCT116 tumors, BCNU 30 mg/kg single i.p.).
For `Nc1nc(OCc2ccccc2)c2nc[nH]c2n1` [BG, O^6-benzylguanine], the “potentiation of TMZ cytotoxicity” value is 10 fold in series [3]; 10 fold in series [4]; “up to 14 fold” in the series with SW480 cells [1] (SW480 tumor cells, Example 13). Further, the “increase of BCNU cytotoxicity by BG” value in the series on SW480 cells [1] (SW480) and in the series with HCT116 cells [2] (HCT116) was 3-4 fold throughout. In addition, in the series with SW480 cells [1] (SW480, MMS 0-3 mM plus 6 mM MX and/or BG vs MMS alone), the “DMF / potentiation of MMS cytotoxicity” value turned out to be 6 fold. In the series on SW480 cells [1] (SW480), the “DMF (IC50 for TMZ alone/IC50 for TMZ plus modifier(s))” value was 14 fold. In the series with MAWI cells, the “enhancement of temozolomide toxicity” value was 300 fold. Besides, the “additional effect of BG on potentiated cytotoxicity” value with HCT116 cells [2] (HCT116, BG added to MX or PD128763 combination) was “no effect”. Further, in the series with SW480 xenograft (30 mg/kg BG one hour prior to 40 mg/kg TMZ), the “enhancement of tumor growth delay by BG” value is on record as “up to 3 fold”.
`O=c1[nH]c(=O)n([C@H]2C[C@H](O)[C@@H](CO)O2)cc1I` [IUdR, 5-iodo-2′-deoxyuridine]: the IC50 in the series with HCT116 cells [5] was greater than 60 µM.
Turning to `COS(C)(=O)=O` [MMS, methylmethane sulfonate], the IC50 in the series on SW480 cells [1] (Homo sapiens, SW480, SW480, read-out: IC50 of MMS) amounted to 820 µM; in the series on HCT116 cells [2] (HCT116, read-out: IC50 of MMS) it was 1400 µM.
As to `COc1cccc2c1CCNC2=O` [PD128763, 3,4-dihydro-5-methoxyisoquinolin-1(2H)-one], the “effect of modifier alone on cell cycle distribution” value in the series on SW480 cells [6] is given as “did not affect”. In addition, in the series on SW480 cells [1] (SW480), the “DMF (IC50 for TMZ alone/IC50 for TMZ plus modifier(s))” value is given as 3.3 fold. Besides, the “effect of modifier on BCNU cytotoxicity” value with SW480 cells [1] (SW480, without BG) is “no enhancement; also recorded: no sensitization”; with HCT116 cells [2] (HCT116, without BG), “only minor enhancement; also recorded: no sensitization”. For the same compound, the “effect on cell cycle distribution” value with HCT116 cells [7] is listed as “did not affect”. The “DMF (IC50 for TMZ alone/IC50 for TMZ plus modifier)” value with HCT116 cells [2] (HCT116, modifier plus TMZ vs TMZ alone) was found to be 5.0 fold.
In the case of `Cn1nnc2c(C(N)=O)ncn2c1=O` [TMZ, temozolomide], the “cells accumulated in S and G2” value in the series with SW480 cells [6] (TMZ 300 μM, 24 hr) is 75-90%. In the series with SW480 cells [6] (TMZ 300 μM, MX 6 mM, PD128763 100 μM, day 3), this compound returned an apoptotic cells of 8%. In addition, the figures for the “Toxicity (max. BW loss)” value in [8] and in series [9] were 20.8% and 11%, respectively. The IC50 with SW480 cells [1] (Homo sapiens, SW480, SW480, TMZ 0-1500 μM 2 h, alone or with 6 mM MX and/or BG pretreatment, read-out: IC50 of TMZ) was found to be 395 µM; with SW480 cells [1] (SW480, TMZ 0-1500 μM 2 h, alone or with 6 mM MX and/or BG pretreatment, read-out: IC50 of TMZ) it was 375 µM; with HCT116 cells [2] (HCT116 (MH1 defective cells), even after inhibition of AGT by BG, read-out: IC50 of TMZ) it was 950 µM. For the same compound, the “Tumor growth delays” value with SW480 xenograft (SW480 xenograft, Table 1 doses: TMZ 120, MX 2, BG+TMZ 30/120, MX+TMZ 2/120 mg/kg, daily for 5 days) is 9.3 ± 1.2 days; in the series on HCT116 xenograft (HCT116 xenograft, Table 2 doses: TMZ 120, MX 2, MX+TMZ 2/120 mg/kg, daily for 5 days) it was 2.5 ± 0.8 days. For the same compound, the tumor growth delay result in the series on SW480 xenograft (SW480 xenograft, text doses: TMZ 120 mg/kg, 0.2 mg/kg MX plus 120 mg/kg TMZ) is on record as “approximately 12 days”.
`COc1cc([C@@H]2c3cc4c(cc3[C@@H](O[C@@H]3O[C@@H]5CO[C@@H](C)O[C@H]5[C@H](O)[C@H]3O)[C@H]3COC(=O)[C@H]23)OCO4)cc(OC)c1O` [etoposide]: the “resistance compared to parental DLD1 cell line” value with DEtp cell line is reported as 5 fold.

Source of the values: patent US8324282B2, “Alkylating agent combinations in the treatment of cancer” (Case Western Reserve University, priority 1999, dated 2012).
